Source: article PMC10014103, “The immunometabolite itaconate stimulates OXGR1 to promote mucociliary clearance during the pulmonary innate immune response” (The Journal of Clinical Investigation, 2023)

Legend:
[1] = system: mouse trachea; experiment: Ex vivo trachea culture, cilia beating-derived fluorescent bead movement; settings: 500 μM ITA or 100 μM ATP
Description: Tracheas were harvested from mice and cut longitudinally through the middle of the trachealis muscle to expose the lumen of the trachea. Tracheas were then transferred into HBSS buffer and equilibrated for 30 minutes. With the lumen facing down, trachea tissues were transferred into 2 mL HBSS buffer supplemented with 0.5% methylcellulose, red fluorescent beads, 30 mM HEPES, and the indicated ligand. Bead flow was monitored with the BioTek Cytation 5 cell imaging system. Twenty individual beads were tracked from different fields of view in each condition, and the speed of each bead was calculated by […].

[2] = target: T1, human OXGR1 (Homo sapiens, UniProt Q96P68); experiment: cAMP GloSensor assay in HEK293 cells expressing human OXGR1; type: cell-based; settings: 0.5 mM ligand, Gs/Gi coupling
Description: For the GloSensor assay, HEK293 cells stably expressing pGloSensor-22F were transfected with GPCR plasmids. Thirty-six hours after transfection, cells were trypsinized and resuspended at a density of 2.5 × 10^5 cells/mL in HBSS supplemented with 10 mM HEPES, 0.5% BSA, 2% GloSensor cAMP Reagent stock solution (Promega), and 300 μM IBMX, and loaded with GloSensor substrates for 2 hours. Cell suspensions (100 μL) were aliquoted onto 96-well plates. Cells were treated with 0.5 mM of the indicated ligand or 1 μM forskolin, and luminance was recorded.

[3] = target: T2, human GPCRs (Homo sapiens, UniProt Q96P68); experiment: Screen of 301 human GPCRs in transfected HEK293 cells (aequorin, Gα16 coexpression); type: cell-based; settings: 301 GPCRs, ligand final 0.625 mM; result for OXGR1
T2 construct: expressed in transfected cells; host or cells: HEK293
Text: In our search for the function and mechanism of secreted ITA, we noted the signaling of the GPCR proteins SUCNR1/GPR91 and OXGR1/GPR99, which sense the TCA metabolites succinate and α-KG, which are structurally similar to ITA ([27]). To test the hypothesis that ITA may similarly signal through a GPCR, we performed a screening of human GPCRs in transfected HEK293 cells and measured GPCR-dependent calcium mobilization (Figure 1E and Supplemental Figure 1; supplemental material available online with this article; https://doi.org/10.1172/JCI160463DS1). In order to allow more GPCRs to couple with the calcium pathway, we optimized the screening system by inducing coexpression of the promiscuous Gq family α subunit Gα16 ([34]). We examined 301 GPCRs that cover more than 70% of the nonolfactory GPCRs encoded by the human genome ([35]).
For the aequorin assay, HEK293 cells were transfected with aequorin plasmids (Addgene no. 78734), Gα16 plasmid, and GPCR plasmids. Thirty-six hours after transfection, cells were maintained in serum-free medium for 12 hours and then loaded with 5 μM coelenterazine for 3 hours. […] Ligands (100 μL, diluted to 1.25 mM in HBSS buffer, with a final concentration of 0.625 mM) were injected into plates, and luminance was recorded for 30 seconds using the BioTek Synergy H1 plate reader.

[4] = system: human OXGR1 orthosteric site mutants; experiment: Aequorin assay in HEK293 cells expressing mutant human OXGR1; type: cell-based; settings: effect of mutation on ligand-stimulated calcium response
Description: (§1) Thirty-six hours after transfection, cells were maintained in serum-free medium for 12 hours and then loaded with 5 μM coelenterazine for 3 hours. Cells were trypsinized and resuspended at a density of 5 × 10^5 cells/mL in HBSS supplemented with 10 mM HEPES and 0.5% BSA. Cell suspensions of 100 μL were aliquoted into 96-well plates.

[5] = system: primary human respiratory epithelial cells (ALI culture); experiment: Bead movement in ALI culture of primary human bronchial epithelial cells; type: cell-based; settings: 500 μM ITA, OXGR1-dependent
Description: . When they reached full confluence, the cells were differentiated by exposure to air and cultured in a serum-free medium for 20 days. ALI culturing of primary human bronchial epithelium was performed following the manufacturer’s manual ([…] Technologies). Briefly, cells were maintained in PneumaCult-Ex Plus medium on a Transwell insert. Medium on the lateral side was switched to PneumaCult-ALI medium. The apical side of the Transwell membrane was then carefully washed with prewarmed Dulbecco’s PBS (DPBS). Cells were differentiated by exposure to air for 3 weeks. The medium was changed every 2 days.
For the measurement of bead movement in ALI culture, the apical side of the ALI culture inserts was washed with PBS 5 times to fully remove mucus. The inserts were transferred to HBSS buffer supplemented with 30 mM HEPES and the indicated ligand, and 20 μL bath buffer containing red fluorescent beads was added to the apical side. After 15 minutes of equilibration, bead movement was monitored with the BioTek Cytation 5 cell imaging system.

[6] = target: T1, human OXGR1; experiment: Aequorin assay (calcium mobilization) in HEK293 cells overexpressing human OXGR1; type: cell-based; settings: for EC50: read-out: EC50
Description: as §1

[7] = system: OXGR1; experiment: Cellular thermal shift assay of OXGR1; type: binding, human; settings: 1 mM ITA, 37 to 62 °C
Description: Supplementary Figure 4. ITA increases the thermostability of OXGR1
Cells expressing Myc-tagged BirA along with AviTag-tagged wildtype (A) or R110A mutant (B) OXGR1 were treated with 1 μM biotin for 16 hours in serum-free medium to biotinylate OXGR1 in native conformation. Cells were treated with or without 1mM ITA, lysed, and incubated under different temperatures (from 37 to 62℃) for 3 minutes.
Denatured protein was removed by centrifuge. Biotinylated OXGR1 was determined by Western blot and quantified. […]

[8] = system: respiratory epithelium mucin secretion; experiment: Intranasal administration, mucin-containing cells in nasal cavity (Alcian blue/PAS); type: in vivo, mouse; settings: intranasal 500 μM ITA, 1 hour
Text: Harvested mouse skulls were fixed in 4% paraformaldehyde overnight and decalcified with 12% EDTA for 2 weeks. After full decalcification, the snoots were trimmed in between the incisor teeth and the first molar teeth. Trimmed tissues were embedded with paraffin, and sections were taken from the most proximal aspect of the nasal cavity. Mucin-containing epithelial cells distributed in the basement membrane of the nasal cavity floor and septum were visualized by Alcian blue/PAS staining and manually counted.

[9] = target: T1, human OXGR1; experiment: Fluo-4 assay in HEK293 cells expressing human OXGR1; type: cell-based; settings: Fluo-4 assay, hOXGR1 in HEK293 cells; read-out: EC50
Description: For the Fluo-4AM assay, OXGR1-expressing cells were loaded with 2 μM Fluo-4AM for 30 minutes at 37°C. Excess Fluo-4AM was then washed off with HBSS buffer. After incubation at 37°C for another 10 minutes, cells were transferred onto a 96-well plate.

In the case of `C=C(CC(=O)O)C(=O)O` [ITA, itaconate], the “movement of beads, trachea from Oxgr1+/+ mice” value [1] is reported as “significantly increased the movement of beads”, the “intracellular cAMP” value [2] is reported as “did not affect intracellular cAMP” and the “calcium mobilization in GPCR screen” value [3] is reported as “the only receptor that showed robust and reproducible calcium mobilization”. For the same compound, the “calcium response, mutants C106A, R110A, H258A, R261A, I265A” value [4] was “completely abolished”, the “calcium response, mutants H114A, Y118F, I121A, I285A, R288A” value [4] was “dramatically impaired” and the movement of beads [5] was “accelerated the movement of beads”. The “calcium response (agonist effect)” value ([6]; HEK293 cells overexpressing human OXGR1, aequorin) was “stimulated the calcium response in a dose-dependent manner”, the EC50 ([6]; OXGR1, as stated in abstract) was roughly 300 µM and the EC50 ([6]; aequorin assay, hOXGR1 in HEK293 cells) was 310 ± 45.2 µM. The EC50 ([6]; human OXGR1, text summary of Figure 1F and Supplemental Figure 2 (aequorin and Fluo-4)) was 200 to 300 µM, the “thermal stability of WT OXGR1” value [7] was “increased the thermal stability” and the “mucin-containing cells in respiratory epithelium, Oxgr1+/+ mice” value [8] was “decrease of mucin-containing cells”. The “mucin-containing cells in respiratory epithelium, Oxgr1–/– mice” value [8] was “did not observe an effect” and the EC50 [9] was 221 ± 107 µM.
